# According to patent publication US7700622B2, “p-38 kinase inhibitors” (Novartis AG, priority 2003, dated 2010):
# Target: T1, p38α kinase (Homo sapiens, UniProt Q16539)
# T1 construct: purchased Upstate
# Assay: p38α assay (coupled ADP/NADH oxidation kinase assay)
# Type: biochemical
# Set-up: scale not given here
# Conditions: 60 min preincubation with p38α, 0.15 mM ATP, 37° C.; read-out: Activity (p-38) IC50
# Method: cDNAs of human p38α and β were cloned by PCR. The α and β cDNAs were subcloned into DEST2 plasmid (Gateway, InVitrogen). His6-p38 fusion protein was expressed in E. coli and purified from bacterial lysates by affinity chromatography using Ni^+2-NTA-agarose. His6-p38 protein was activated by incubating with constitutively active MKK6. Active p38 was separated from MKK6 by affinity chromatography. Constitutively active MKK6 was generated in a manner similar to Raingeaud et al. [Mol. Cell.
# The p38α assay employed is based on measurement of ADP released in the reaction of interest through NADH oxidation obtained by coupling with pyruvate kinase and lactate dehydrogenase reactions. The assays were performed in 384-well UV-plates. The final volume was 25 uL prepared from the addition of 2.5 uL compound dissolved in 10% DMSO, 17.5 uL of assay buffer and 5 uL of ATP. […] Test compounds are preincubated with p38α for 60 min and the reaction started by addition of ATP to 0.15 mM final concentration. Reaction rates were measured at 340 nm using SpectraMax plate-reading spectrophotometer for 10 min at 37° C. Inhibition data were analyzed by non-linear least squares regression using SigmaPlot.
# T1 sequence (Q16539 whole entry): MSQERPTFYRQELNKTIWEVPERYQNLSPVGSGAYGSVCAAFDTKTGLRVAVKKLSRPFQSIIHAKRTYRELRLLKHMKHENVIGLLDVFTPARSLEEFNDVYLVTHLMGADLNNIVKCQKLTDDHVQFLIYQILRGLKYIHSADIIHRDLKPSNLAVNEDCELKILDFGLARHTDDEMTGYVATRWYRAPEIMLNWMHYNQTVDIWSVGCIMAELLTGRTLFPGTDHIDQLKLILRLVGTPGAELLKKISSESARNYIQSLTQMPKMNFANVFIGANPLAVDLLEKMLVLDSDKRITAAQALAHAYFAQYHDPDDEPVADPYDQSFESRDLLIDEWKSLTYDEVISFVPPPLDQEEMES
row,SMILES,IC50
1,"Cc1ccc(C(=O)NC2CC2)cc1-c1ccc2c(=O)n(Cc3c(Cl)cccc3Cl)cnc2c1 [Example 7, N-Cyclopropyl-3-[3-(2,6-dichloro-benzyl)-4-oxo-3,4-dihydro-quinazolin-7-yl]-4-methyl-benzamide]",< 1000 nM
2,"Cc1ccc(C(=O)NC2CC2)cc1-c1ccc2c(-c3ccccc3)nc(=O)[nH]c2c1 [Example 15, N-Cyclopropyl-4-methyl-3-(2-oxo-4-phenyl-1,2-dihydro-quinazolin-7-yl)-benzamide]",< 1000 nM
3,"COc1ccc(CNC(=O)c2ccc(-c3cc(C(=O)NC4CC4)ccc3C)nc2)cc1 [Example 12, 6-(5-Cyclopropylcarbamoyl-2-methyl-phenyl)-N-(4-methoxy-benzyl)-nicotinamide]",< 1000 nM
4,"Cc1ccc(C(=O)NC2CC2)cc1-c1ccc(C(=O)c2ccccc2)c(N)c1 [Example 14, 3′-Amino-4′-benzoyl-6-methyl-biphenyl-3-carboxylic acid cyclopropylamide]",< 1000 nM
5,"Cc1ccc(C(=O)NC2CC2)cc1-c1ccc(-c2nnco2)cc1 [Example 1, 6-Methyl4′-[1,3,4]oxadiazol-2-yl-biphenyl-3-carboxylic acid cyclopropylamide]",< 1000 nM
6,"Cc1ccc(C(=O)NC2CC2)cc1-c1ccc(-c2nnco2)cn1 [Example 4, N-Cyclopropyl-4-methyl-3-(5-[1,3,4]oxadiazol-2-yl-pyridin-2-yl)-benzamide]",< 1000 nM
7,"Cc1ccc(C(=O)NC2CC2)cc1-c1ccc2c(-c3ccccc3)ncnc2c1 [Example 16, N-Cyclopropyl-4-methyl-3-(4-phenyl-quinazolin-7-yl)-benzamide]",< 1000 nM
8,"Cc1nnc(-c2ccc(-c3cc(C(=O)NC4CC4)ccc3C)nc2)o1 [Example 5, N-Cyclopropyl-4-methyl-3-[5-(5-methyl-[1,3,4]oxadiazol-2-yl)-pyridin-2-yl]-benzamide]",< 1000 nM
9,"Cc1ccc(C(=O)NC2CC2)cc1-c1ccc2c(=O)n(Cc3ccccc3)cnc2c1 [Example 6, 3-(3-Benzyl-4-oxo-3,4-dihydro-quinazolin-7-yl)-N-cyclopropyl-4-methyl-benzamide]",< 1000 nM
10,"Cc1ccc(C(=O)NC2CC2)cc1-c1ccc(-c2nnc[nH]2)cc1 [Example 3, 6-Methyl4′-(4H-[1,2,4]triazol-3-yl)-biphenyl-3-carboxylic acid cyclopropylamide]",< 1000 nM
11,"COc1ccc(Cn2cnc3cc(-c4cc(C(=O)NC5CC5)ccc4C)ccc3c2=O)cc1 [Example 9, N-Cyclopropyl-3-[3-(4-methoxy-benzyl)-4-oxo-3,4-dihydro-quinazolin-7-yl]-4-methyl-benzamide]",< 1000 nM
12,"Cc1ccc(C(=O)NC2CC2)cc1-c1ccc2c(=O)[nH]cnc2c1 [Example 10, N-Cyclopropyl-4-methyl-3-(4-oxo-3,4-dihydro-quinazolin-7-yl)-benzamide]",< 1000 nM
13,"Cc1ccc(C(=O)NC2CC2)cc1-c1ccc2c(=O)n(Cc3ccc(Cl)c(Cl)c3)cnc2c1 [Example 8, N-Cyclopropyl-3-[3-(3,4-dichloro-benzyl)-4-oxo-3,4-dihydro-quinazolin-7-yl]-4-methyl-benzamide]",< 1000 nM
14,"CC(=O)Nc1cc(-c2cc(C(=O)NC3CC3)ccc2C)ccc1C(=O)c1ccccc1 [Example 17, 3′-Acetylamino4′-benzoyl-6-methyl-biphenyl-3-carboxylic acid cyclopropylamide]",< 1000 nM
15,"Cc1ccc(C(=O)NC2CC2)cc1-c1ccc(C(=O)c2ccccc2)cc1 [Example 11, 4′-Benzoyl-6-methyl-biphenyl-3-carboxylic acid cyclopropylamide]",< 1000 nM
16,"COc1ccc(CNC(=O)c2cnc(-c3cc(C(=O)NC4CC4)ccc3C)nc2N)cc1 [Example 13, N-(4-Methoxybenzyl)-2-[(5-cyclopropylaminocarbonyl)-2-methylphenyl]-4-aminopyrimidine-5-carboxyamide]",< 1000 nM
